Here are results for four compounds from ChEMBL document CHEMBL1201862, “PubChem BioAssay data set” (2004).

Among the test systems are CAKI-1; EKVX; HCC 2998; HCT-15; IGROV-1; KM12; MDA-N; Malme-3M; NCI-H226; NCI-H23; OVCAR-3; OVCAR-4; OVCAR-5; SF-295; SK-MEL-28; SN12C; SW-620; T47D; U-251; UO-31.
What all share (assay): growth of human tumour cells (NCI), 48 h

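Following 48 hours of exposure in 96-well plates, responses at five concentrations were used to interpolate endpoints linearly. The concentration for 50% growth inhibition is given as GI50.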 Calls of active or inactive are those of the source. Rule as the data show it: active = GI50 up to about 1.1 µM and inactive = higher.

Consider `CCCCCCCCCC1CC(=O)NCC(=O)NC(C(C)C)C(=O)NC(CC(C)C)C(=O)NC(C)C(=O)NC(C(C)C)C(=O)O1` (stereo not given), for which the GI50 was > 100 µM (inactive) in the test with CAKI-1; 21.5 µM (inactive) with EKVX; > 42.7 µM (inactive) in the test with HCC 2998; more than 100 µM in the test with HCT-15; 31.9 µM (inactive) in the test on IGROV-1; 6.79 µM (inactive) with KM12. Also, the GI50 with MDA-N is 17.1 µM (inactive); with Malme-3M it was 22.6 µM (inactive); in the test on NCI-H226, 36.6 µM (inactive); in the test on NCI-H23, 13.6 µM (inactive); in the test with OVCAR-3, 9.59 µM (inactive); in the test with OVCAR-4 it was 4.76 µM (inactive). The GI50 in the test with OVCAR-5 is 38.4 µM (inactive); with SF-295 it was 13.3 µM (inactive); in the test on SK-MEL-28, 15.2 µM (inactive); in the test with SN12C, 19.1 µM (inactive); in the test on SW-620 it was 3.84 µM (inactive); in the test with T47D, 20.5 µM (inactive). Moreover, the values for the GI50 in the test with U-251 and in the test with UO-31 were 12.8 µM (inactive) and > 100 µM (inactive), respectively.

In the case of `COC1=C(OC)C(=O)c2cc(C)c(=O)c(C)cc2C1=O`, the GI50 is 17.3 µM (inactive) in the test on CAKI-1; 17.3 µM (inactive) with EKVX; 22.4 µM (inactive) with HCC 2998; 21.3 µM in the test on HCT-15; 18.6 µM (inactive) in the test with IGROV-1; 17.6 µM (inactive) in the test on KM12. Also, the GI50 in the test on MDA-N is 2.53 µM (inactive); in the test with Malme-3M it was 17.1 µM (inactive); in the test on NCI-H226, 18.6 µM (inactive); in the test with NCI-H23, 16.9 µM (inactive); in the test with OVCAR-3 it was 10.4 µM (inactive); in the test with OVCAR-4, 2.83 µM (inactive). Also, the GI50 was 31.3 µM (inactive) in the test with OVCAR-5; 32.6 µM (inactive) with SF-295; 16.5 µM (inactive) with SK-MEL-28; 2.81 µM (inactive) in the test with SN12C; 8.61 µM (inactive) in the test with SW-620; 28.6 µM (inactive) in the test with T47D. Moreover, the GI50 in the test on U-251 was 17.2 µM (inactive); in the test with UO-31, 13.8 µM (inactive).

On to `Fc1ccc(F)c(/C=N/C23CC4CC(CC(C4)C2)C3)c1`, for which the GI50 was > 10 µM (inactive) with CAKI-1; > 10 µM (inactive) in the test on EKVX; > 10 µM (inactive) with HCC 2998; more than 10 µM with HCT-15; > 10 µM (inactive) in the test on IGROV-1; > 10 µM (inactive) in the test on KM12. Further, the GI50 in the test on MDA-N, with Malme-3M, with NCI-H226, in the test with NCI-H23, with OVCAR-3 and with OVCAR-4 was > 10 µM (inactive) each time. Besides, the GI50 in the test on OVCAR-5, in the test with SF-295, in the test on SK-MEL-28, in the test on SN12C, in the test with SW-620 and with T47D was > 10 µM (inactive) each time. For the same compound, the GI50 in the test on U-251 and in the test on UO-31 was > 10 µM (inactive) throughout.

With `O=C1CC(n2cccc2)c2c(Br)sc(Br)c21` (stereo not given), the GI50 in the test on CAKI-1 is 6.49 µM (inactive); in the test with EKVX, 16 µM (inactive); in the test with HCC 2998, 15.4 µM (inactive); in the test on HCT-15 it was 12.8 µM; in the test on IGROV-1, 16.2 µM (inactive); in the test on KM12, 7.23 µM (inactive). In addition, the GI50 in the test on MDA-N is 16.3 µM (inactive); in the test with Malme-3M, 18.5 µM (inactive); in the test on NCI-H226, 18.8 µM (inactive); with NCI-H23, 13.6 µM (inactive); in the test on OVCAR-3, 15.8 µM (inactive); with OVCAR-4 it was 16.7 µM (inactive). Moreover, the GI50 is 17.7 µM (inactive) in the test with OVCAR-5; 23.3 µM (inactive) with SF-295; 20.3 µM (inactive) in the test on SK-MEL-28; 17.3 µM (inactive) with SN12C; 12.4 µM (inactive) in the test on SW-620; 18.1 µM (inactive) in the test with T47D. Moreover, the GI50 in the test on U-251 was 15.2 µM (inactive); with UO-31, 2.56 µM (inactive).
